Assay results from patent US9833497B2, “Human originated EGF domain proteins and use of the same” (CHENGDU SOURCEBIO LIMITED-LIABILITY COMPANY, priority 2013, dated 2017).

Tests used:
E. coli DH5α = assay: Antibacterial activity: MIC and growth curve against E. coli DH5α in 96-well plate; format: cell-based; details: for MIC: minimal inhibitory concentration against E. coli DH5α, 96-well plate, 37° C., judged after 8 h
How it was run: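 MIC taken as lowest protein level with no bacterial growth, tracked by A600 every 30 min during 37 °C, 175 rpm culture. Two-fold protein series 50-12.5 μg/mL final, triplicate wells, against 5×10^5 CFU/mL of LB-washed mid-log cells.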

E. coli BL21 = assay: MIC against Gram-negative bacteria: E. coli BL21; format: cell-based; details: E. coli BL21; 96-well plate, 5×10^5 CFU/mL, 37° C., 10 h
How it was run: (§1)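 LB broth cultures at McFarland 0.5, spun down, resuspended, diluted to 5×10^5 CFU/mL final. Two-fold serial dilutions of purified human EGF domain proteins, triplicate. 37° C, 175 rpm shaking. Endpoint: no visible growth.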

Pseudomonas aeruginosa = assay: MIC against Gram-negative bacteria: Pseudomonas aeruginosa; format: cell-based; details: Pseudomonas aeruginosa; 96-well plate, 5×10^5 CFU/mL, 37° C., 10 h
How it was run: as §1

Klebsiella pneumonia = assay: MIC against Gram-negative bacteria: Klebsiella pneumonia; format: cell-based; details: Klebsiella pneumonia; 96-well plate, 5×10^5 CFU/mL, 37° C., 10 h
How it was run: as §1

Enterobacter cloacae = assay: MIC against Gram-negative bacteria: Enterobacter cloacae; format: cell-based; details: Enterobacter cloacae; 96-well plate, 5×10^5 CFU/mL, 37° C., 10 h
How it was run: as §1

Aeromonas hydrophila = assay: MIC against Gram-negative bacteria: Aeromonas hydrophila; format: cell-based; details: Aeromonas hydrophila; 96-well plate, 5×10^5 CFU/mL, 37° C., 10 h
How it was run: as §1

Citrobacter diversus = assay: MIC against Gram-negative bacteria: Citrobacter diversus; format: cell-based; details: Citrobacter diversus; 96-well plate, 5×10^5 CFU/mL, 37° C., 10 h
How it was run: as §1

Moraxella catarrhalis = assay: MIC against Gram-negative bacteria: Moraxella catarrhalis; format: cell-based; details: Moraxella catarrhalis; 96-well plate, 5×10^5 CFU/mL, 37° C., 10 h
How it was run: as §1

Proteus mirabilis = assay: MIC against Gram-negative bacteria: Proteus mirabilis; format: cell-based; details: Proteus mirabilis; 96-well plate, 5×10^5 CFU/mL, 37° C., 10 h
How it was run: as §1

Proteus vulgaris = assay: MIC against Gram-negative bacteria: Proteus vulgaris; format: cell-based; details: Proteus vulgaris; 96-well plate, 5×10^5 CFU/mL, 37° C., 10 h
How it was run: as §1

Serratia marcescens = assay: MIC against Gram-negative bacteria: Serratia marcescens; format: cell-based; details: Serratia marcescens; 96-well plate, 5×10^5 CFU/mL, 37° C., 10 h
How it was run: as §1

[1] = Silver staining detection of endotoxin (LPS) hydrolysis; format: biochemical; details: E. coli EH100 LPS incubated overnight with protein, FIG. 28
Description: 1. The E. coli EH100 LPS (Sigma) samples were respectively incubated with the obtained human-originated EGF domain proteins (PRT1 to PRT1498 in Table 1) such as the recombination protein hF VII-EGF1, etc.; and the control group was the LPS sample incubated with TB S buffer. The incubation lasted overnight. Then, the centrifugation was performed to collect the pellet.
2. The 1×loading buffer for LPS (0.05 mol/L Tris-HCl, containing 10 g/L SDS, 100 g/L sucrose, 0.5% β-mercaptoethanol, 10 mg/L Bromophenol Blue, pH 6.8) was mixed with the sample of the treated pellet and incubated on a metal bath at 100° C. for 5 min.
3. 15% separating gel (containing 4 mol/L urea, Bio-Rad with a thickness of 1.0 mm, the detailed composition as follows: 1.15 mL of deionized water, 2.5 mL of 30% acrylamide, 1.3 mL of 1.5 mol/L Tris-HCl (pH 8.8, containing 10% SDS), 50 μl of 10% ammonium persulfate, 4 μl of TEMED) was mixed well and prepared. The top of the separating gel was overlaid with water.
4. 5% stacking gel was prepared as follows: 1.42 mL of deionized water, 0.33 mL of 30% acrylamide, 0.25 mL of 1 mol/L Tris-HCl (pH 6.8, containing 10% SDS), 20 μL of 10% ammonium persulfate, 2 μL of TEMED) were mixed well and poured. A ten-well comb was quickly inserted.
5. After the gel was prepared, the samples were loaded. Then, the gel was run at a voltage of 120 V to separate the samples. […]

Row | Substance | MIC (E. coli DH5α; 5×10^5 CFU/mL) [µg/mL] | MIC (μg/mL) E. coli BL21 (E. coli BL21) [µg/mL] | MIC (μg/mL) P. aeruginosa (Pseudomonas aeruginosa) [µg/mL] | MIC (μg/mL) K. pneumonia (Klebsiella pneumonia) [µg/mL] | MIC (μg/mL) E. cloacae (Enterobacter cloacae) [µg/mL] | MIC (μg/mL) A. hydrophila (Aeromonas hydrophila) [µg/mL] | MIC (μg/mL) C. diversus (Citrobacter diversus) [µg/mL] | MIC (μg/mL) M. catarrhalis (Moraxella catarrhalis) [µg/mL] | MIC (μg/mL) P. mirabilis (Proteus mirabilis) [µg/mL] | MIC (μg/mL) P. vulgaris (Proteus vulgaris) [µg/mL] | MIC (μg/mL) S. marcescens (Serratia marcescens) [µg/mL] | MIC (minimal inhibitory concentration) (E. coli DH5α; E. coli DH5α, 5×10^5 CFU/mL, after 8 h of cultivation at 37° C.) [µg/mL] | inhibitory effect on the growth of E. coli DH5α (E. coli DH5α; growth curve (OD 600 nm), FIG. 27 / Table 2) | hydrolysis of LPS (LPS band in silver staining) [1]
1 | PRT1494 (KALCTPRCMNGGLCVTPGFCICPPGFYGVNCD; listed as Homo sapiens) | 25 | 12.5 | 25 | 12.5 | 25 | 12.5 | 25 | 25 | 12.5 | 12.5 | 12.5 |  |  | 
2 | PRT1495 (KANCSTTCFNGGTCFYPGKCICPPGLEGE; listed as Homo sapiens) | 25 | 12.5 | 25 | 25 | 12.5 | 12.5 | 50 | 50 | 50 | 25 | 25 |  |  | 
3 | PRT1496 (EISKCPQPCRNGGKCIGKSKCKCSKGYQGDLCS; listed as Homo sapiens) | 50 | 25 | 12.5 | 12.5 | 100 | 50 | 50 | 12.5 | 50 | 100 | 25 |  |  | 
4 | PRT1497 (KPVCEPGCGAHGTCHEPNKCQCQEGWHGRHCN; listed as Homo sapiens) | 50 | 25 | 12.5 | 50 | 25 | 12.5 | 25 | 50 | 12.5 | 50 | 12.5 |  |  | 
5 | PRT1498 (PESPCLQNPCQNDGQCREQGATFTCECEVGYGGGLCM; listed as Homo sapiens) | 50 | 25 | 12.5 | 12.5 | 50 | 12.5 | 50 | 12.5 | 50 | 12.5 | 12.5 |  |  | 
6 | hF VII-EGF1: human coagulation factor VII-EGF1 domain protein, molecular weight about 3.9 kD, recombinant, released from RFP fusion by rTEV (DGDQCASSPCQNGGSCKDQLQSYICFCLPAFEGRNCE; listed as Homo sapiens) | 12.5 | 12.5 | 25 | 25 | 12.5 | 12.5 | 12.5 | 25 | 25 | 12.5 | 12.5 | 12.5 | significant inhibitory effect | eliminates the majority of LPS
